We go through 1 compound from US9096554B2, “Drugs for inhibiting p38 and uses thereof” (UNIVERSIDAD AUTÓNOMA DE MADRID, priority 2011, dated 2015).

SMILES strings stand for the structures. Entries after “also recorded” stand apart in the source; their conditions may differ.

Data set [1] concerns spinal cord astrocytes and neurons. Briefly: Toxicity at the intrathecal injection site, Fluoro-Jade B staining, LysM-GRK2f/+ mice. As to conditions: two days after the injection, FIG. 10. Format: in vivo. The method, then: Furthermore, the possible toxicity of Compound 1 at the injection site (intrathecal) was measured.
A short description of data set [2]: Paw thickness as measurement of ongoing inflammation. Format: in vivo, mice. The note with it: six days after treatment, FIG. 11E.
The subject of a further data set is TNF-α. Briefly: TNF-α levels in the spinal cord after intrathecal treatment (ELISA). Type of data set: in vivo, mice. As to conditions: FIG. 11D. The method, then: To find out if TNF-α levels are repressed in vivo after treatment with Compound 1, the spinal cord was isolated two days after intrathecal treatment with said compound and TNF-α levels were analyzed with ELISA.
(In general: ELISA stands for enzyme-linked immunosorbent assay.)

The subject of a further data set is p38 MAPK. Briefly: Activation of p38 MAPK in response to LPS and its activity (P-MK2, P-Hsp27) in THP-1 cells, Western Blot. The note with it: THP-1, LPS, 1 and 5 μM, FIG. 2B. Type of data set: cell-based, human. How it is done:
This assay was performed to analyze the effect of Compound 1 on the activation of p38 MAPK and on its activity in a human monocytic cell line (THP-1) (American Type Culture Collection: http://www.atcc.org/) treated with different concentrations of said compound.
Briefly, human monocytic cells from said THP-1 cell line at a density of about 10^6 cells/ml were stimulated with bacterial LPS (Sigma #L2654) at a concentration of between 1 and 10 mg/ml (which may vary depending on the batch) for 1 hour in the absence or presence of Compound 1 at different concentrations (1 μM and 5 μM) dissolved in dimethyl sulfoxide (DMSO). DMSO was used as a control. The cells were lysed in a 100 mM pH 7.5 Tris/HCl buffer, 200 mM EDTA, 1 μM benzamidine, 10 mg/ml STI (soy trypsin inhibitor), 10 mg/ml bacitracin, 80 mU/ml aprotinin, 100 μM phenylmethanesulfonyl fluoride (PMSF) and phosSTOP (Roche, Ref.#04906845001). The samples were subsequently analyzed using Western Blot with specific antibodies. Briefly, the activation of p38 MAPK was analyzed by quantifying by densitometry the amount of p38 MAPK phosphorylated in the activation loop (TGY) by means of Western Blot with anti-phospho-T180-Y182-p38 antibodies (Cell Signaling, Ref.#9211) and by normalizing the values with those obtained for total p38 MAPK levels in each lysate. […]

`Cc1ccc(Cl)cc1Nc1ccc([N+](=O)[O-])c2nonc12` [Compound 1, (5-chloro-2-methyl-phenyl)-(7-nitro-benzo[1,2,5]oxadiazol-4-yl)-amine]: the “neurotoxicity at the injection site (Fluoro-Jade B, dead or damaged cells)” value in data set [1] was “no signs of neurotoxicity were detected; also recorded: hardly any dead cells”. Moreover, in data set [2], the mouse paw thickness result is on record as “increased”. Besides, the “TNF-α levels in the spinal cord” value with TNF-α (after intraplantar carrageenan, two days after intrathecal treatment) was “significantly reduces”. The “TNF-α secretion, compound alone” value in the data set on TNF-α (without carrageenan) is “has no effect”. In addition, in the data set on p38 MAPK, the “activation of p38 MAPK (P-p38)” value is listed as “decrease in the activation of p38 MAPK”; the “phosphorylation of MK2 and Hsp27 substrates” value was “decrease in the phosphorylation”.
